In patent US20080004290A1, “Anti-Cancer Agents” (THE UNIVERSITY OF QUEENSLAND, priority 2003, published 2008):
Read-outs that look alike come from different tables or passages of the source.

Assays:
p21^WAF1/Cip1 (CDKN1A) = experiment: Induction of p21 expression (semi-quantitative RT-PCR) in MM96L cells; assay type: cell-based, human; settings: MM96L melanoma cells, 10 μg/ml, after 16 hrs treatment
Excerpt: Induction of p21 Expression. It has been postulated that histone acetylation is associated with activation of gene transcription. […] Possibly the best characterised gene to be induced following exposure to different HDAC inhibitors is that of the cyclin-dependent kinase inhibitor p21^WAF1/Cip1, which blocks cyclin-dependent kinase activity thereby causing cell-cycle arrest in G1. HDAC inhibitors are thought to act directly on the CDKN1A promoter rather than an upstream target. The HDAC inhibitor SAHA induces accumulation of acetylated histones in the chromatin associated with the CDKN1A gene, and this correlates with the observed increase in transcription. […]
Cell Treatment and Total RNA Isolation. […] RNA was analysed for sufficient quality by formamide agarose gel electrophoresis, and quantified by spectrophotometry.
p21 Expression. The semi-quantitative analysis of mRNA expression of p21^WAF1/Cip1 was carried out by RT-PCR. […] Products were analysed by agarose gel electrophoresis, and visualised on a UV light box. Product intensity was determined to increase linearly with number of cycles and amount of mRNA used, by densitometric analysis using ImageQuaNT 4.2 software (Molecular Dynamics, Sunnyvale, Calif.). Quantitation of p21^WAF1/Cip1 induction was also performed by densitometric analysis using ImageQuaNT 4.2 software following normalisation to GAPDH product intensity.

[1] = tested on: NFF, neonatal foreskin fibroblasts; experiment: Cell survival assay (clonogenic survival, SRB), normal cells; assay type: cell-based, human
How it was run: (§1)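 Cells (5×10^3/well, RPMI 1640 with 10% FCS) treated 24 h with compound at 0.01-10 μg/mL, then washed and grown 72 h drug-free at 37 °C, 5% CO2. Survival read by SRB staining after methylated-spirit fixation, absorbance 564 nm.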

MM96L melanoma cells = experiment: Cell survival assay (clonogenic survival, SRB); assay type: cell-based, human
How it was run: as §1

[2] = tested on: MCF-7 breast cancer cells; experiment: Cell survival assay (SRB); assay type: cell-based, human; settings: Table 10, standard deviations in parentheses, read-out: Cell line IC50 (μM) MCF7
How it was run: (§2)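 5×10^3 cells/well, overnight attachment; 24 h compound pulse; medium exchanged; 72 h recovery; methylated-spirits fixation; 0.4% SRB stain 1 h; dye solubilised in 10 mM Tris; A564.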

JAM ovarian cancer cells = experiment: Cell survival assay (SRB); assay type: cell-based, human; settings: Table 10, standard deviations in parentheses, read-out: Cell line IC50 (μM) JAM
How it was run: as §2

[3] = tested on: CI-80-13S ovarian cancer cells; experiment: Cell survival assay (SRB); assay type: cell-based, human; settings: Table 10, standard deviations in parentheses, read-out: Cell line IC50 (μM) C18013S
How it was run: as §2

DO4 melanoma cells = experiment: Cell survival assay (SRB); assay type: cell-based, human; settings: Table 10, standard deviations in parentheses, read-out: Cell line IC50 (μM) DO4
How it was run: as §2

[4] = tested on: DU145 prostate cancer cells; experiment: Cell survival assay (SRB); assay type: cell-based, human; settings: Table 10, standard deviations in parentheses, read-out: Cell line IC50 (μM) DU145
How it was run: as §2

SkMel28 melanoma cells = experiment: Cell survival assay (SRB); assay type: cell-based, human; settings: Table 10, standard deviations in parentheses, read-out: Cell line IC50 (μM) SkMel
How it was run: as §2

[5] = Oral bioavailability, plasma concentration after oral and intravenous administration; assay type: in vivo, Wistar rats; settings: 5 mg/kg in 4:1 olive oil:DMSO, three rats starved prior to dosing
Procedure: FIG. 7. Oral Bioavailability. Time dependent plasma concentration of compound of example 24 after oral (top) and intravenous (bottom) administration at 5 mg/kg to each of three Wistar rats.
Compounds of the invention were examined to see whether this new series had the expected favorable properties for oral delivery. […] Compound 24 (Log D7.0 2.7) was administered intravenously and orally to rats. […] Neither vehicle nor fasting had any significant effects on these parameters.

histone deacetylase = experiment: Histone hyperacetylation (histone H4, Triton-acetic acid-urea gel) in MM96L cells; assay type: cell-based, human; settings: (figure legends: 5 μg/mL, 8 hours)
Procedure: FIG. 1. Acetylation of Histones. […] Lane 1: untreated. Lane 2: compound of example 22 Lane 3: compound of example 40. Lane 4: TSA. Non-acetylated (A), mono-acetylated (B), di-acetylated (C), tri-acetylated (D) and tetra-acetylated (E) histone H4 are indicated.
FIG. 2. Acetylation of histones MM96L cells were treated with 5 μg/ml of various compound for 8 hr, before harvest and analysis of histone H4 acetylation by Triton-acetic acid-urea gel as previously described (Saito et al., 1991; Qiu et al., 1999). Lane 1: untreated: lane 2: Compound of example 73; lane 3: Compound of example 40; lane 4: TSA. Non-acetylated (A), mono-acetylated (B), di-acetylated (C), tri-acetylated (D) and tetra-acetylated (E) histone H4 are indicated.
Histone Hyperacetylation.

[6] = Table 10, standard deviations in parentheses, read-out: Cell line IC50 (μM) NFF
[7] = Table 10, standard deviations in parentheses, read-out: Cell line IC50 (μM) MM96L
[8] = Table 5, 24 hours with compound, further growth, SRB, read-out: IC50 NFF
[9] = Table 5, 24 hours with compound, further growth, SRB, read-out: IC50 MM96L
[10] = Table 5, Selectivity Index = IC50 (NFF)/IC50 (MM96L)

| Structure (SMILES) | Induction of mRNA for p21^WAF1/Cip1 (p21^WAF1/Cip1 (CDKN1A)) | IC50 [1, 6] [µM] | IC50 (MM96L melanoma cells; [7]) [µM] | IC50 [2] [µM] | IC50 (JAM ovarian cancer cells) [µM] | IC50 [3] [µM] | IC50 (DO4 melanoma cells) [µM] | IC50 [4] [µM] | IC50 (SkMel28 melanoma cells) [µM] | IC50 [1, 8] [µM] | IC50 (MM96L melanoma cells; [9]) [µM] | Selectivity (MM96L melanoma cells; [10]) | acetylation state of histone H4 (histone deacetylase) | other results |
| --- | --- | --- | --- | --- | --- | --- | --- | --- | --- | --- | --- | --- | --- | --- |
| O=C(CCCSC[C@H](NC(=O)c1ccc(Br)cc1)C(=O)NCc1ccccc1)NO [Example 24] | Induction of mRNA for p21^WAF1/Cip1 was seen | 0.83 | 0.2 | 1.16 | 2 | 1.5 | 3.5 | 3.8 | 5.7 |  |  |  |  | Tmax [5]: ~15 min; time for which high serum levels of drug were maintained [5]: > 4 h; Cmax ([5]; serum, preliminary study): ~6000 ng/mL |
| CN(C)c1ccc(C(=O)N[C@@H](CSCCCC(=O)NO)C(=O)NC2CCCc3ccccc32)cc1 (stereo partly shown) [Example 67] | Induction of mRNA for p21^WAF1/Cip1 was seen |  |  |  |  |  |  |  |  |  |  |  |  | IC50 ([1]; Homo sapiens, Fibroblast, 24 h, Table 6, 24 hours with compound, further growth, SRB, read-out: IC50 (μM) NFF): 2.2 ± 0.2 µM; IC50 ([1]; Homo sapiens, Fibroblast, Table 10, standard deviations in parentheses, read-out: Cell line IC50 (μM) NFF): 2.2 µM; IC50 (MM96L melanoma cells; Homo sapiens, MM96L, 24 h, Table 6, 24 hours with compound, further growth, SRB, read-out: IC50 (μM) MM96L): 0.2 ± 0.1 µM; IC50 (MM96L melanoma cells; Homo sapiens, MM96L, Table 10, standard deviations in parentheses, read-out: Cell line IC50 (μM) MM96L): 0.2 µM; IC50 (MM96L melanoma cells; Homo sapiens, MM96L, most preferred compounds, exemplary examples, read-out: potency of IC50 against the MM96 melanoma cells): ≤ 0.5 µM; Selectivity (MM96L melanoma cells; Table 6, IC50 (NFF)/IC50 (MM96L)): 11; IC50 ([2]; Homo sapiens, MCF7): 0.96 µM; IC50 (JAM ovarian cancer cells; Homo sapiens): 1.47 µM; IC50 ([3]; Homo sapiens, C180-13S): 1.24 µM; IC50 (DO4 melanoma cells; Homo sapiens, DO4): 2.73 µM; IC50 ([4]; Homo sapiens, DU-145): 1.06 µM; IC50 (SkMel28 melanoma cells; Homo sapiens, SK-MEL-28): 2.59 µM |
| CN(C)c1ccc(C(=O)N[C@@H](CSCCCC(=O)NO)C(=O)NCc2ccccc2)cc1 [Example 22] |  | 0.35 | 0.14 | 0.59 | 1.24 | 0.7 | 2 | 0.61 | 3 | 0.35 ± 0.07 | 0.14 ± 0.09 | 2.5 | hyperacetylation of H4 |  |
| O=C(CCCSC[C@H](NC(=O)c1cc2ccccc2[nH]1)C(=O)NCc1ccccc1)NO [Example 40] |  | 0.8 | 0.13 | 0.84 | 0.75 | 0.4 | 1.3 | 0.4 | 1.7 | 0.8 ± 0.2 | 0.13 ± 0.09 | 6.2 | hyperacetylation of H4 |  |
